{
  "source": "the supplement of paper PMC10307832",
  "test_in_all_cases": "relative viability (nuclei count vs DMSO), 5 days (fraction); higher = more cells survive",
  "key": {"[1]": {"test_system": "HCC-366", "outline": "(§1)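 A single step with final 0.05% Triton X-100, 1% formaldehyde and 1 ug/ml Hoechst fixed the cells and stained nuclei 5 days after treatment. Lung cancer cell lines in 1536-well plates had been treated by pin tool the day after seeding with one drug alone or a fixed anchor-drug dose plus five library-drug doses (not always all listed) in √10 steps, and nuclei were counted on 4× images. Relative viability is the ratio of nuclei in treated wells to nuclei in vehicle wells, taken as the median of duplicate plates.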"}, "[2]": {"test_system": "NCI-H23", "outline": "as §1"}, "[3]": {"test_system": "ChaGo-K-1", "outline": "as §1"}, "[4]": {"test_system": "NCI-H2228", "outline": "as §1"}, "[5]": {"test_system": "NCI-H1944", "outline": "as §1"}, "[6]": {"test_system": "NCI-H1993", "outline": "as §1"}, "[7]": {"test_system": "NCI-H1793", "outline": "as §1"}, "[8]": {"test_system": "EMC-BAC-2", "outline": "as §1"}, "[9]": {"test_system": "NCI-H1734", "outline": "as §1"}, "[10]": {"test_system": "NCI-H2009", "outline": "as §1"}, "[11]": {"test_system": "HCC-78", "outline": "as §1"}, "[12]": {"test_system": "NCI-H2126", "outline": "as §1"}, "[13]": {"test_system": "NCI-H2405", "outline": "as §1"}, "[14]": {"test_system": "SK-LU-1", "outline": "as §1"}, "[15]": {"test_system": "COR-L23", "outline": "as §1"}, "[16]": {"test_system": "UMC-11", "outline": "as §1"}, "[17]": {"test_system": "NCI-H2023", "outline": "as §1"}, "[18]": {"test_system": "NCI-H838", "outline": "as §1"}, "[19]": {"test_system": "LC-2-ad", "outline": "as §1"}, "[20]": {"test_system": "HCC-15", "outline": "as §1"}, "[21]": {"test_system": "HARA", "outline": "as §1"}, "[22]": {"test_system": "A-427", "outline": "as §1"}},
  "data": [
    {"molecule": "O=C(O)c1ccc(-c2c[nH]c3ncc(-c4ccccc4)cc23)cc1C1CCCC1", "note": "+ CC(=O)Nc1cccc(-n2c(=O)n(C3CC3)c(=O)c3c(Nc4ccc(I)cc4F)n(C)c(=O)c(C)c32)c1 [Trametinib] (partner 0.02 µM)", "values": [
      {"measurement": "relative viability", "setting": "[1]; first compound 0.04 µM", "result": 0.343},
      {"measurement": "relative viability", "setting": "[1]; first compound 0.1265 µM", "result": 0.466},
      {"measurement": "relative viability", "setting": "[1]; first compound 0.4 µM", "result": 0.311},
      {"measurement": "relative viability", "setting": "[1]; first compound 1.265 µM", "result": 0.309},
      {"measurement": "relative viability", "setting": "[2]; first compound 0.04 µM", "result": 0.375},
      {"measurement": "relative viability", "setting": "[2]; first compound 0.1265 µM", "result": 0.397},
      {"measurement": "relative viability", "setting": "[2]; first compound 0.4 µM", "result": 0.373},
      {"measurement": "relative viability", "setting": "[2]; first compound 1.265 µM", "result": 0.258},
      {"measurement": "relative viability", "setting": "[3]; first compound 0.04 µM", "result": 1.15},
      {"measurement": "relative viability", "setting": "[3]; first compound 0.1265 µM", "result": 0.895},
      {"measurement": "relative viability", "setting": "[3]; first compound 0.4 µM", "result": 0.89},
      {"measurement": "relative viability", "setting": "[3]; first compound 1.265 µM", "result": 0.857},
      {"measurement": "relative viability", "setting": "[4]; first compound 0.04 µM", "result": 0.548},
      {"measurement": "relative viability", "setting": "[4]; first compound 0.1265 µM", "result": 0.581},
      {"measurement": "relative viability", "setting": "[4]; first compound 0.4 µM", "result": 0.633},
      {"measurement": "relative viability", "setting": "[4]; first compound 1.265 µM", "result": 0.305},
      {"measurement": "relative viability", "setting": "[5]; first compound 0.04 µM", "result": 0.405},
      {"measurement": "relative viability", "setting": "[5]; first compound 0.1265 µM", "result": 0.437},
      {"measurement": "relative viability", "setting": "[5]; first compound 0.4 µM", "result": 0.487},
      {"measurement": "relative viability", "setting": "[5]; first compound 1.265 µM", "result": 0.37},
      {"measurement": "relative viability", "setting": "[6]; first compound 0.04 µM", "result": 0.473},
      {"measurement": "relative viability", "setting": "[6]; first compound 0.1265 µM", "result": 0.484},
      {"measurement": "relative viability", "setting": "[6]; first compound 0.4 µM", "result": 0.42},
      {"measurement": "relative viability", "setting": "[6]; first compound 1.265 µM", "result": 0.575},
      {"measurement": "relative viability", "setting": "[7]; first compound 0.04 µM", "result": 0.407},
      {"measurement": "relative viability", "setting": "[7]; first compound 0.1265 µM", "result": 0.51},
      {"measurement": "relative viability", "setting": "[7]; first compound 0.4 µM", "result": 0.497},
      {"measurement": "relative viability", "setting": "[7]; first compound 1.265 µM", "result": 0.34},
      {"measurement": "relative viability", "setting": "[8]; first compound 0.04 µM", "result": 0.903},
      {"measurement": "relative viability", "setting": "[8]; first compound 0.1265 µM", "result": 0.976},
      {"measurement": "relative viability", "setting": "[8]; first compound 0.4 µM", "result": 1.05},
      {"measurement": "relative viability", "setting": "[8]; first compound 1.265 µM", "result": 0.973},
      {"measurement": "relative viability", "setting": "[9]; first compound 0.04 µM", "result": 0.618},
      {"measurement": "relative viability", "setting": "[9]; first compound 0.1265 µM", "result": 0.706},
      {"measurement": "relative viability", "setting": "[9]; first compound 0.4 µM", "result": 0.614},
      {"measurement": "relative viability", "setting": "[9]; first compound 1.265 µM", "result": 0.585},
      {"measurement": "relative viability", "setting": "[10]; first compound 0.04 µM", "result": 0.261},
      {"measurement": "relative viability", "setting": "[10]; first compound 0.1265 µM", "result": 0.311},
      {"measurement": "relative viability", "setting": "[10]; first compound 0.4 µM", "result": 0.274},
      {"measurement": "relative viability", "setting": "[10]; first compound 1.265 µM", "result": 0.224},
      {"measurement": "relative viability", "setting": "[11]; first compound 0.1265 µM", "result": 0.937},
      {"measurement": "relative viability", "setting": "[11]; first compound 0.4 µM", "result": 0.945},
      {"measurement": "relative viability", "setting": "[11]; first compound 1.265 µM", "result": 0.829},
      {"measurement": "relative viability", "setting": "[12]; first compound 0.04 µM", "result": 0.597},
      {"measurement": "relative viability", "setting": "[12]; first compound 0.1265 µM", "result": 0.585},
      {"measurement": "relative viability", "setting": "[12]; first compound 0.4 µM", "result": 0.562},
      {"measurement": "relative viability", "setting": "[12]; first compound 1.265 µM", "result": 0.55},
      {"measurement": "relative viability", "setting": "[13]; first compound 0.04 µM", "result": 0.64},
      {"measurement": "relative viability", "setting": "[13]; first compound 0.1265 µM", "result": 0.651},
      {"measurement": "relative viability", "setting": "[13]; first compound 0.4 µM", "result": 0.627},
      {"measurement": "relative viability", "setting": "[13]; first compound 1.265 µM", "result": 0.587},
      {"measurement": "relative viability", "setting": "[14]; first compound 0.04 µM", "result": 0.522},
      {"measurement": "relative viability", "setting": "[14]; first compound 0.1265 µM", "result": 0.591},
      {"measurement": "relative viability", "setting": "[14]; first compound 0.4 µM", "result": 0.513},
      {"measurement": "relative viability", "setting": "[14]; first compound 1.265 µM", "result": 0.37},
      {"measurement": "relative viability", "setting": "[15]; first compound 0.04 µM", "result": 0.584},
      {"measurement": "relative viability", "setting": "[15]; first compound 0.1265 µM", "result": 0.608},
      {"measurement": "relative viability", "setting": "[15]; first compound 0.4 µM", "result": 0.627},
      {"measurement": "relative viability", "setting": "[15]; first compound 1.265 µM", "result": 0.507},
      {"measurement": "relative viability", "setting": "[16]; first compound 0.04 µM", "result": 0.702},
      {"measurement": "relative viability", "setting": "[16]; first compound 0.1265 µM", "result": 0.719},
      {"measurement": "relative viability", "setting": "[16]; first compound 0.4 µM", "result": 0.711},
      {"measurement": "relative viability", "setting": "[16]; first compound 1.265 µM", "result": 0.641},
      {"measurement": "relative viability", "setting": "[17]; first compound 0.04 µM", "result": 0.525},
      {"measurement": "relative viability", "setting": "[17]; first compound 0.1265 µM", "result": 0.55},
      {"measurement": "relative viability", "setting": "[17]; first compound 0.4 µM", "result": 0.618},
      {"measurement": "relative viability", "setting": "[17]; first compound 1.265 µM", "result": 0.413},
      {"measurement": "relative viability", "setting": "[18]; first compound 0.04 µM", "result": 0.563},
      {"measurement": "relative viability", "setting": "[18]; first compound 0.1265 µM", "result": 0.561},
      {"measurement": "relative viability", "setting": "[18]; first compound 0.4 µM", "result": 0.569},
      {"measurement": "relative viability", "setting": "[18]; first compound 1.265 µM", "result": 0.472},
      {"measurement": "relative viability", "setting": "[19]; first compound 0.04 µM", "result": 0.876},
      {"measurement": "relative viability", "setting": "[19]; first compound 0.1265 µM", "result": 0.921},
      {"measurement": "relative viability", "setting": "[19]; first compound 0.4 µM", "result": 0.897},
      {"measurement": "relative viability", "setting": "[19]; first compound 1.265 µM", "result": 0.769},
      {"measurement": "relative viability", "setting": "[20]; first compound 0.04 µM", "result": 0.396},
      {"measurement": "relative viability", "setting": "[20]; first compound 0.1265 µM", "result": 0.395},
      {"measurement": "relative viability", "setting": "[20]; first compound 0.4 µM", "result": 0.409},
      {"measurement": "relative viability", "setting": "[20]; first compound 1.265 µM", "result": 0.351},
      {"measurement": "relative viability", "setting": "[21]; first compound 0.04 µM", "result": 0.692},
      {"measurement": "relative viability", "setting": "[21]; first compound 0.1265 µM", "result": 0.72},
      {"measurement": "relative viability", "setting": "[21]; first compound 0.4 µM", "result": 0.74},
      {"measurement": "relative viability", "setting": "[21]; first compound 1.265 µM", "result": 0.545},
      {"measurement": "relative viability", "setting": "[22]; first compound 0.04 µM", "result": 0.759},
      {"measurement": "relative viability", "setting": "[22]; first compound 0.1265 µM", "result": 0.78},
      {"measurement": "relative viability", "setting": "[22]; first compound 0.4 µM", "result": 0.741},
      {"measurement": "relative viability", "setting": "[22]; first compound 1.265 µM", "result": 0.584}
    ]}
  ]
}
